In one data set the test system is Plasmodium berghei. Conditions: cited from earlier work.
Another data set has as its system P. falciparum. Details: method as in literature (number not shown). As to conditions: strain not stated; ref literature (number not shown); read-out: IC50, P. falciparum in vitro; cited from earlier work.
On the set-up of data set [1]: method as in literature (number not shown). Conditions: low pH similar to mouse and human stomachs; ref literature (number not shown); cited from earlier work.
Data set [2] has as its system P. falciparum FCR3 strain. Also noted: method as in literature (numbers not shown). As to conditions: ref literature (numbers not shown); cited from earlier work.
The test system of another data set is P. falciparum K1 strain. Also noted: method as in earlier work. Conditions: ref previous reports incl. authors' earlier work (numbers not shown); cited from earlier work.
The test system of another data set is P. falciparum D10 strain. Also noted: method as in literature (number not shown). As to conditions: ref literature (number not shown); cited from earlier work.
For data set [3], the system named is variety of P. falciparum strains. As to conditions: read-out: IC50, in vitro growth, cited from earlier work.
The subject of data set [4] is human mammary epithelial cells (HME). Also noted: method as in literature (number not shown). Conditions: ref literature (number not shown); cited from earlier work.
Data set [5] concerns MRC-5 human fibroblasts. Description: Cytotoxicity/cell viability assay (Alamar blue). Format: cell-based. Conditions: read-out: fibroblasts IC50. As to the method: Medical Research Council cell strain 5 (MRC-5) human fetal fibroblasts were cultivated in Dulbecco′s modified Eagle’s medium (DMEM) supplemented with 10% bovine fetal serum and 1% antibiotic at 37 °C under an atmosphere of 5% CO2. Cell viability assessment relied on the Alamar blue method. […] Doxorubicin at concentrations of 0.312, 0.625, 1.25, 2.50, 5.00, 10.0, and 20.0 μM was used as a positive control for cell death. The negative control wells received DMSO (sample diluent) at 0.1%. In preparation for the assay, this method involved plating 0.5 × 10^4 cells/well on 96 well test plates and incubating for 24 h under the same conditions used for cell culture. This initial 24 h period was necessary for cell adhesion. The assay consisted of triplicate addition of diluted samples and controls to wells followed by 48 h of incubation. For quantification of viable cells, 10 μL of 0.4% Alamar blue (Sigma-Aldrich)–which works out to an in-well concentration of 0.02%–were added to each well 3 h before the end of the treatment. Alamar blue was allowed to react for 3 h followed by quantification of the optical density (OD) of each well at an excitation wavelength of 465 nm and emission wavelength of 540 nm using an ELISA plate reader (DTX-800, Beckman Coulter). Comparison of individual sample viability OD to that of controls (blanks) afforded the cell viability. Interpolation of the nonlinear curve using GraphPad Prism software permitted the calculation of estimates of the sample IC50 values compared to drug-free controls.
A general note: Resazurin is reduced to fluorescent resorufin, in cell work by metabolically active cells.

In the next data set the test system is P. falciparum W2 strain. Also noted: method as in literature (numbers not shown). Conditions: ref literature (numbers not shown), listed as gedunin; cited from earlier work.
The next data set relates to Hs578Bst cells. Also noted: method as in literature (number not shown). As to conditions: immortalized, adult-derived normal cells; ref literature (number not shown); cited from earlier work.
In data set [6] the test system is K1 strain of Plasmodium falciparum. Description: In vitro susceptibility assay (microtest), P. falciparum K1 growth inhibition. The class given is cell-based. As to the method:
In vitro culture of the K1 strain of P. falciparum (MRA-159, MR4, ATCC, Manassas, Virginia, USA) proceeded following an established method with modifications. Briefly, this method involved the growth of parasites in human type A+ red blood cells and RPMI 1640 medium supplemented with 10% type A+ human plasma at 37 °C under an atmosphere of 5% O2, 5% CO2, and 90% N2.
As initial condition for the susceptibility assay, cultures were synchronized by treatment with 5% D-sorbitol, which provided young trophozoites (ring stages). Performance of the microtest followed a previously described procedure with modifications. Compounds were dissolved in DMSO with the aid of an ultrasound bath to provided stock solutions. […] These diluted samples were evaluated in duplicate in a 96-well test plate. A suspension of parasitized red blood cells (pRBCs) at 2% hematocrit and 1% parasitemia was added to each well. Microplate incubation proceeded for 48 h at 37 °C under the same atmosphere used for parasite culture in two independent experiments conducted on different days. Control wells contained chloroquine (0.003–2.5 μg/mL) and quinine (0.003–2.5 μg/mL). Six (6) control (blank) wells were prepared with pRBCs suspension. Six cosolvent control wells were prepared with 1% DMSO and pRBCs suspension. An average of these 12 controls defined drug-free (untreated) growth. After the incubation period, thin blood smears of the contents of each well were prepared on microscope slides. Optical microscopy was used to analyze the blood smears and establish the parasitemia of each well. Interpolation of the nonlinear curve using GraphPad Prism permitted the calculation of estimates of the sample concentrations able to inhibit 50% of parasite growth (IC50) compared to drug-free controls.

For data set [7], the system named is mouse mammary carcinoma (FM3A) cell cultures. Also noted: method as in literature (number not shown). As to conditions: ref literature (number not shown); cited from earlier work.
The next data set deals with P. falciparum Dd2 strain. As to conditions: ref recent study on C. guianensis (number not shown); cited from earlier work.
For data set [8], the system named is P. falciparum K1 strain vs MRC-5 human fibroblasts. Kind of data set: Selectivity index, IC50 (human fibroblasts) ÷ IC50 (P. falciparum). The class given is cell-based, Plasmodium falciparum. The text has this: Calculation of the selectivity index (SI) using the following formula afforded the relative toxicity of each sample to human fibroblasts and to P. falciparum blood stages: SI = IC50 (human fibroblasts) ÷ IC50 (P. falciparum).

The test system of data set [9] is MRC-5 human fibroblasts. Details: method as in authors' previous evaluation (number not shown). As to conditions: ref authors' previous evaluation (number not shown); cited from earlier work.

Where “and” joins values, the source holds several entries; their conditions need not be identical. Equal entries are not always repeated. Where two headings read alike, the source gives them in different places.

Turning to “7-deacetyl-7α-methoxygedunin [reference compound]”, the “suppression of P. berghei vs untreated controls” value in the data set on Plasmodium berghei (oral, 50 mg/kg/day together with dillapiole 25 mg/kg/day (binary treatment), mice, ref literature (numbers not shown)) is recorded as 68–81%. Besides, the half-inhibitory concentration (IC50) – broadly, the concentration at which inhibition is half-maximal – with P. falciparum is 1600 to 1700 nM. The “stability at low pH” value in data set [1] was “good stability at low pH”.
With `CC(=O)O[C@@H]1C[C@H]2C(C)(C)C(=O)C=C[C@]2(C)[C@H]2CC[C@@]3(C)[C@H](c4ccoc4)OC(=O)[C@H]4O[C@]43[C@@]21C` (single isomer, unassigned) [compound 4, gedunin], the IC50 was 2500 nM in data set [2]; 1500 nM with P. falciparum K1 strain; 1660 ± 370 nM in the data set with P. falciparum D10 strain; 20 to 3100 nM in data set [3] (chloroquine-resistant (Dd2, K1, W2) and chloroquine-sensitive (3D7, D6, D10, FCR3, FCR3TC) strains, ref literature (numbers not shown)); > 100000 nM in the data set on MRC-5 human fibroblasts [5] (MRC5, MRC-5, tested at 50 μg/mL for 48 h); 1310 ± 420 nM with P. falciparum W2 strain. In addition, the IC50 was 1.4 µg/mL and 2.8 µM in data set [6] (Plasmodium falciparum, K1, 48 h, K1 strain, 48 h, CI95 in brackets, read-out: P. falciparum IC50 (CI95)); 2800 ± 200 nM with P. falciparum Dd2 strain. Moreover, the “toxicity to HME cells” value in data set [4] is recorded as “no appreciable toxicity”. In addition, in the data set on Plasmodium berghei (oral or subcutaneous 50–90 mg/kg/day, P. berghei-infected mice, ref literature (numbers not shown)), the “suppression of parasite growth vs untreated controls” value is recorded as “failed to significantly suppress parasite growth”. In addition, the “toxicity to Hs578Bst cells” value in the data set with Hs578Bst cells is “no appreciable toxicity”. In data set [7], the “toxicity to FM3A cells” value was “toxic”. In data set [8], the “selectivity index (SI)” value was >37.
Take `CC1(C)C(=O)C=C[C@]2(C)[C@H]3CC[C@@]4(C)[C@H](c5ccoc5)OC(=O)[C@H]5O[C@]54[C@]3(C)[C@H](O)C[C@@H]12` [compound 2, 7-deacetylgedunin]: the concentration for half-maximal inhibition (IC50) in the data set with P. falciparum K1 strain was 3100 nM; in [3] (variety of strains (3D7, D6, D10, W2, INDO), ref several previous reports (numbers not shown)) it was 1300 to 5900 nM; in the data set on MRC-5 human fibroblasts [5] (MRC5, 48 h), > 110000 nM; in [6] (Plasmodium falciparum, K1, 48 h, read-out: P. falciparum IC50 (CI95), K1 strain, 48 h, CI95 in brackets), 5.9 µg/mL; in data set [6] (read-out: P. falciparum IC50 (CI95), K1 strain, 48 h, CI95 in brackets), 13000 nM. For the same compound, the “stability at low pH” value in data set [1] is “react at low pH”. Also, the “selectivity index (SI)” value in data set [8] is recorded as >8.5.
As for `CC(=O)O[C@H]1[C@@H](OC(C)=O)[C@]2(C)[C@H](CC[C@@]3(C)[C@H](c4ccoc4)OC(=O)[C@H]4O[C@@]423)[C@@]2(C)C=CC(=O)C(C)(C)[C@H]12` [compound 12, 6α-acetoxygedunin], the 50% inhibitory concentration (IC50) was 7000 nM in the data set with P. falciparum K1 strain, > 110000 nM with MRC-5 human fibroblasts [9] and 2100 ± 200 nM in the data set on P. falciparum Dd2 strain. Also, the suppression of parasitemia in the data set on Plasmodium berghei (oral 50–100 mg/kg/day, P. berghei-infected mice, ref authors' earlier work (number not shown)) was 40–66%.

These data come from publication PMC12529149, “Chemical and Antiplasmodial Investigations on Carapa-Derived Gedunin Derivatives and Semisynthetic 6- and 7‑Substituted Gedunin Analogues from the Brazilian Amazon” (ACS Omega, 2025).
